Measurements published in ChEMBL document CHEMBL1144239, “Identification of novel protein kinase CK1 delta (CK1delta) inhibitors through structure-based virtual screening” (Bioorg Med Chem Lett, 2008).

Key:
[1] = Inhibition of CK1
[2] = biological target: ALK tyrosine kinase receptor (Homo sapiens, UniProt Q9UM73); experiment: Inhibition of GST tagged ALK
[3] = biological target: Casein kinase I isoform gamma-1 (Homo sapiens, UniProt Q9HCP0); experiment: Inhibition of CK1gamma1
[4] = biological target: Tyrosine-protein kinase CSK (Homo sapiens, UniProt P41240); experiment: Inhibition of CSK
[5] = Inhibition of CK2
[6] = biological target: Casein kinase I isoform delta (Homo sapiens, UniProt P48730); experiment: Inhibition of CK1delta
[7] = biological target: Tyrosine-protein kinase Fgr (Homo sapiens, UniProt P09769); experiment: Inhibition of Fgr
[8] = biological target: Serine/threonine-protein kinase pim-1 (Homo sapiens, UniProt P11309); experiment: Inhibition of PIM1
[9] = biological target: Dual specificity tyrosine-phosphorylation-regulated kinase 1A (Homo sapiens, UniProt Q13627); experiment: Inhibition of DYRK1a
[10] = Inhibition of PKA
[11] = biological target: Homeodomain-interacting protein kinase 2 (Homo sapiens, UniProt Q9H2X6); experiment: Inhibition of HIPK2
[12] = Cytotoxicity against cisplatin-resistant human C13 cells after 48 hrs; type: functional, cell-based; settings: C13, 48 h
[13] = Cytotoxicity against human ovarian carcinoma cells after 48 hrs; type: functional, cell-based; settings: Ovarian carcinoma cell
[14] = biological target: Casein kinase I isoform alpha (Homo sapiens, UniProt P48729); experiment: Inhibition of CK1alpha
[15] = biological target: Tyrosine-protein kinase SYK (Homo sapiens, UniProt P43405); experiment: Inhibition of Syk
[16] = biological target: Tyrosine-protein kinase Lyn (Homo sapiens, UniProt P07948); experiment: Inhibition of Lyn

Sequence of Casein kinase I isoform alpha (P48729 whole entry, canonical isoform): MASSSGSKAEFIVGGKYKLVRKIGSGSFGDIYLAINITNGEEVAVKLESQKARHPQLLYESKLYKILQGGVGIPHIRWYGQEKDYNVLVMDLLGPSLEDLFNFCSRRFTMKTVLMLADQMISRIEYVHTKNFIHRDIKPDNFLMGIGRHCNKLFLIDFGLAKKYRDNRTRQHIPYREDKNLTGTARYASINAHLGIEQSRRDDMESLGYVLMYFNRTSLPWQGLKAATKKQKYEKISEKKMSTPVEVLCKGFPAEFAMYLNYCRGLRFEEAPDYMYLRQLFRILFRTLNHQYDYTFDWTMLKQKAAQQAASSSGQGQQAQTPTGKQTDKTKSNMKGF
Sequence of Casein kinase I isoform delta (P48730 whole entry, canonical isoform): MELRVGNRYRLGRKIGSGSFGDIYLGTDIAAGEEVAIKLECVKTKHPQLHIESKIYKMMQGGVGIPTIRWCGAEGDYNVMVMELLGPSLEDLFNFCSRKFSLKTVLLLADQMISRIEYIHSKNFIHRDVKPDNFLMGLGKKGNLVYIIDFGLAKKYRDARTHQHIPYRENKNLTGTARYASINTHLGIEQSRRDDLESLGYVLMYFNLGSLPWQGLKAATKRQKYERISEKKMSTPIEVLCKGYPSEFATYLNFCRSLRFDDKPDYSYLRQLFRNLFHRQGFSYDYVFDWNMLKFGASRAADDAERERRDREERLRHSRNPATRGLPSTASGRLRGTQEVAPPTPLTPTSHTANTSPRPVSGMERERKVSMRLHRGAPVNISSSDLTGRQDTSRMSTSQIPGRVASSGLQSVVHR
Sequence of Casein kinase I isoform gamma-1 (Q9HCP0 whole entry, canonical isoform): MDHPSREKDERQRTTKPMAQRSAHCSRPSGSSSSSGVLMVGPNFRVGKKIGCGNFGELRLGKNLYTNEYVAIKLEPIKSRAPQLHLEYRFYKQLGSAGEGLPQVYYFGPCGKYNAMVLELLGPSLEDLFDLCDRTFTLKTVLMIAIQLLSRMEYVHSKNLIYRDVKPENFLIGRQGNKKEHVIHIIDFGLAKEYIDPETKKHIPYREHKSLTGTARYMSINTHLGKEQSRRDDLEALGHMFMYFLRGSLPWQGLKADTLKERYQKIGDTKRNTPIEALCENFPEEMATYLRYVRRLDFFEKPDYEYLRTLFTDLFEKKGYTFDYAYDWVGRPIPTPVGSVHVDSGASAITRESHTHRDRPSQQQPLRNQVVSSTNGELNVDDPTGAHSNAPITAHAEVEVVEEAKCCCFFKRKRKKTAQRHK
Sequence of Homeodomain-interacting protein kinase 2 (Q9H2X6 whole entry): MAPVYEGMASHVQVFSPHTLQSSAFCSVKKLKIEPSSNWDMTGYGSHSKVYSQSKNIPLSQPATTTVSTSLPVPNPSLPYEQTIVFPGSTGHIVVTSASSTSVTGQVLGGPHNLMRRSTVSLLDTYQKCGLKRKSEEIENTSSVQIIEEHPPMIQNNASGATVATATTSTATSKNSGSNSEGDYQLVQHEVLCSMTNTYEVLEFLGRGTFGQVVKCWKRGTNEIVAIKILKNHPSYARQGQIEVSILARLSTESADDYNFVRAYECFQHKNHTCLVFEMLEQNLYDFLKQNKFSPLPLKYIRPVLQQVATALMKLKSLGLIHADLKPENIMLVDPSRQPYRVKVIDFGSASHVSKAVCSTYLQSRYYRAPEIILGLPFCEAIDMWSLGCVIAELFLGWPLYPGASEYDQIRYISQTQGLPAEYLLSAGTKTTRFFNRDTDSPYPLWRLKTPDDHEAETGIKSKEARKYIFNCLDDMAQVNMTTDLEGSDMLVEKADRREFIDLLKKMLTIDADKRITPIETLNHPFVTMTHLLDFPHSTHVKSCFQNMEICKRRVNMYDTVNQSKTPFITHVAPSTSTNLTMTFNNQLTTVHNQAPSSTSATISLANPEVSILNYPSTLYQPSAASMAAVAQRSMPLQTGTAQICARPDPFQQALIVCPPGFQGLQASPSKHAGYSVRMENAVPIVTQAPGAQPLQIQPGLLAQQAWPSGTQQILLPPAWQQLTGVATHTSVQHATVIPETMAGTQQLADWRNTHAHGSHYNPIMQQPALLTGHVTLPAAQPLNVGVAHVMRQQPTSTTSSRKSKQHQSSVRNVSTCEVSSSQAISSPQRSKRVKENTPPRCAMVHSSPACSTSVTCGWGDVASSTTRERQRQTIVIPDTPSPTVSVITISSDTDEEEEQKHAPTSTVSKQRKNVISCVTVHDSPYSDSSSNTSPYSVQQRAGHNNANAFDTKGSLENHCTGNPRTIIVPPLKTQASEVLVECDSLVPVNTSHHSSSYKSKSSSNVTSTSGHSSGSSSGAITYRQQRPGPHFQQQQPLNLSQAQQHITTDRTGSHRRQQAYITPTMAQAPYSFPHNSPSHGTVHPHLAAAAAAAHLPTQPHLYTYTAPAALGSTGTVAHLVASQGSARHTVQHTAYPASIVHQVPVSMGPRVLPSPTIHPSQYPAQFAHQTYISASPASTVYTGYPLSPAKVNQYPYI
Sequence of Serine/threonine-protein kinase pim-1 (P11309 whole entry): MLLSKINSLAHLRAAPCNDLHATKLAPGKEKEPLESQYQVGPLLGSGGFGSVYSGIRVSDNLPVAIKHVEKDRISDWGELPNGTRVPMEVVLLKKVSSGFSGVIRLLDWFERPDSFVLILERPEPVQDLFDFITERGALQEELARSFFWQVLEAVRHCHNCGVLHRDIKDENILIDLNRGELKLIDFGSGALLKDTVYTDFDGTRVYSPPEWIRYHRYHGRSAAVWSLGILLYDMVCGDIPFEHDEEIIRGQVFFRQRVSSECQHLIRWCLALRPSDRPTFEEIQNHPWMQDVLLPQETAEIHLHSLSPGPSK
Sequence of Tyrosine-protein kinase Fgr (P09769 whole entry): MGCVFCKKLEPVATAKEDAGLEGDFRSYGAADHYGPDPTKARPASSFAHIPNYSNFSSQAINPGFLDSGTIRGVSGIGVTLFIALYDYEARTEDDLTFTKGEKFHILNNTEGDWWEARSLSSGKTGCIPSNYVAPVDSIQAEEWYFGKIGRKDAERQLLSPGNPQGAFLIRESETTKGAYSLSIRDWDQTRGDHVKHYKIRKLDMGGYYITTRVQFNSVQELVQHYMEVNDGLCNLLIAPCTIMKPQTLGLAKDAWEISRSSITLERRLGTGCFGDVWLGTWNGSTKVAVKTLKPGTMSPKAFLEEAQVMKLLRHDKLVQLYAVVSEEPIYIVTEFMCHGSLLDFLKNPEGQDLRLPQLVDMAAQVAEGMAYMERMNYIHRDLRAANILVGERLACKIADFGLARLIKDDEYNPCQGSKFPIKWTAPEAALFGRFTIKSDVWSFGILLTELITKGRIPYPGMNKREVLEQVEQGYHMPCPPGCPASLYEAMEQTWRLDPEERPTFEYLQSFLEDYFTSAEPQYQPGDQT
Sequence of ALK tyrosine kinase receptor (Q9UM73 whole entry, canonical isoform): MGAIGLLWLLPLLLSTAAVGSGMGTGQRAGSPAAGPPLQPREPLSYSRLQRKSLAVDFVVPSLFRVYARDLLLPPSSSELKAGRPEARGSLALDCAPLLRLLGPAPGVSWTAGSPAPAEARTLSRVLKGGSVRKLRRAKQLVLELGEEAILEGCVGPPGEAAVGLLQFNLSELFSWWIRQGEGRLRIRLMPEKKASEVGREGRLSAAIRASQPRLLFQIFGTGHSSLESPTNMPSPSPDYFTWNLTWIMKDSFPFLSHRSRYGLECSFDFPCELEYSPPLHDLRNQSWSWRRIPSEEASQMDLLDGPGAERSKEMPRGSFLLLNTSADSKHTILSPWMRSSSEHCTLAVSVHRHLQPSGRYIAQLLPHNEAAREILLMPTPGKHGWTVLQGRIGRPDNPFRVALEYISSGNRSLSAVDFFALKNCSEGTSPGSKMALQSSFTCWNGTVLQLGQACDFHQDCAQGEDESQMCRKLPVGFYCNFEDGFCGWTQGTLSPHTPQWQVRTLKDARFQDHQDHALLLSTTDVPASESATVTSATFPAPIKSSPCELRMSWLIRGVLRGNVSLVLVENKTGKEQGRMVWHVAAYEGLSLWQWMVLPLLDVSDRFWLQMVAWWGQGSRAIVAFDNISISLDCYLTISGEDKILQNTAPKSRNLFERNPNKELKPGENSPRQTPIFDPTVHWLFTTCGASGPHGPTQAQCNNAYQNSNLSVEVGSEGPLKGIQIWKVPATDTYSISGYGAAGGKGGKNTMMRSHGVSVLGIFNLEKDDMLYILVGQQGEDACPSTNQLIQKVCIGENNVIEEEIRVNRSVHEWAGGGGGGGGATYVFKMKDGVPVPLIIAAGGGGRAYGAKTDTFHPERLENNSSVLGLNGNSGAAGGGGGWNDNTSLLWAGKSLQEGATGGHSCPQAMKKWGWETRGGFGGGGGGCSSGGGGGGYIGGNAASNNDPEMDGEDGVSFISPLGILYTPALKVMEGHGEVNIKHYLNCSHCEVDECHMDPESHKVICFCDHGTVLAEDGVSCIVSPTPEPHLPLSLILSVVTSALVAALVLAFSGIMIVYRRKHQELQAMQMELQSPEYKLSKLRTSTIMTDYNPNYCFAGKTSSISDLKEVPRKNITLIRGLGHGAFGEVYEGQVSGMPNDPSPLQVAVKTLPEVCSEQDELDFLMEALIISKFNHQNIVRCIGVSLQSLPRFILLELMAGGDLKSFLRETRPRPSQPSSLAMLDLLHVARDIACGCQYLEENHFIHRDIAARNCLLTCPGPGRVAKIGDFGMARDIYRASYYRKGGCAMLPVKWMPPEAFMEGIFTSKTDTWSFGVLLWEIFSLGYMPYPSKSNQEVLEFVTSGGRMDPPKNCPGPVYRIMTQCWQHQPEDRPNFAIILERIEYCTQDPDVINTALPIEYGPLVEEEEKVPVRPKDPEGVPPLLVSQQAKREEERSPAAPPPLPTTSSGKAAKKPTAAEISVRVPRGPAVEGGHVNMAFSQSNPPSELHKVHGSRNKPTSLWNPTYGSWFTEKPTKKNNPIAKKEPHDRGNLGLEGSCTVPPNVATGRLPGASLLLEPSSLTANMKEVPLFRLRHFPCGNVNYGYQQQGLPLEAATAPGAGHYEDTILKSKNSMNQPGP

| IC50 [1] [nM] | SMILES | IC50 [3] [µM] | IC50 [6] [nM] | IC50 [12] [µM] | IC50 [13] [µM] | IC50 [14] [µM] | other results |
| --- | --- | --- | --- | --- | --- | --- | --- |
| 300 | NC(=O)c1ccc(-c2nc(-c3ccc4c(c3)OCCO4)c(-c3ccccn3)[nH]2)cc1 |  |  |  |  |  |  |
| 6000 | NCCNS(=O)(=O)c1ccc(Cl)c2ccncc12 |  |  |  |  |  |  |
|  | Nc1ccc(N)c2c1C(=O)c1ccccc1C2=O | 34 | 330 | 87.9 | 14.4 | 4 | IC50 [2]: > 40 µM; IC50 [4]: > 40 µM; IC50 [5]: 18 µM; IC50 [7]: 24 µM; IC50 [8]: 24.7 µM; IC50 [9]: 3.6 µM; IC50 [10]: > 40 µM; IC50 [11]: 3.3 µM; IC50 [15]: > 40 µM; IC50 [16]: > 40 µM |
|  | Nc1ccc(O)c2c1C(=O)c1ccccc1C2=O | 26.2 | 660 | 8 | 122 | 4 |  |
|  | O=C1c2ccccc2C(=O)c2c(O)ccc(O)c21 [QUINIZARIN] | > 40 | > 40000 |  |  | > 40 |  |

| SMILES | IC50 [1] [nM] | IC50 [3] [µM] | IC50 [6] [nM] | IC50 [12] [µM] | IC50 [13] [µM] | IC50 [14] [µM] | other results |
| --- | --- | --- | --- | --- | --- | --- | --- |
| COc1cc(OC)c(C=C2C(=O)Nc3ccccc32)c(OC)c1 [IC261] | 1000 | > 40 | 2570 |  |  | 1.24 |  |
